In patent US9650395B2, “Antibacterial compounds and methods for use” (PTC Therapeutics, Inc., priority 2011, dated 2017):
In brackets after ≈: the same amount, converted by molar mass. Like-named read-outs stand apart in the source and are kept apart here.

What was measured:
[1] = test system: super sensitive Gram-negative Escherichia coli (E. coli) BAS849; test: Antibacterial activity, microbroth dilution MIC, E. coli BAS849; format: cell-based; settings: Escherichia coli, read-out: MIC, BAS849
[2] = test system: control Gram-negative E. coli 25922 strain; test: Antibacterial activity, microbroth dilution MIC, E. coli 25922; format: cell-based, Escherichia coli; settings: Escherichia coli; E. coli 25922, microbroth dilution; read-out: MIC, 25922
[3] = test system: Gram-positive Staphylococcus aureus (S. aureus) 29213; test: Antibacterial activity, microbroth dilution MIC, S. aureus 29213; format: cell-based; settings: Staphylococcus aureus; S. aureus 29213, microbroth dilution; read-out: MIC, 29213
[4] = test system: quinolone resistant E. coli LZ3111; test: Antibacterial activity, MIC, quinolone resistant E. coli LZ3111; format: cell-based, Escherichia coli; settings: Escherichia coli, read-out: MIC, LZ3111
Description: The antibacterial activity from a microbroth dilution method may be presented as the minimum inhibitory concentration (MIC in […]). The MIC value is the lowest concentration of a drug which prevents macroscopically visible bacterial growth under test conditions.
Mutations in these regions are known to confer a high level resistance to the quinolone class of antibiotics.

[5] = E. coli BAS849, microbroth dilution

| Compound | MIC [1, 5] | MIC [2] | MIC [3] | MIC [4] | MIC [1] |
| --- | --- | --- | --- | --- | --- |
| CCc1cc(C(=O)O)c(=O)[nH]c1-c1ccc(N2CCC(O)CC2)cc1 [Cpd 222, 5-ethyl-6-[4-(4-hydroxypiperidin-1-yl)phenyl]-2-oxo-1,2-dihydropyridine-3-carboxylic acid] | 1 to 3.5 µg/mL (≈ 2.92 to 10.2 µM) | 12.5 to 150 µg/mL (≈ 36.5 to 438 µM) | 12.5 to 150 µg/mL (≈ 36.5 to 438 µM) | 12.5 to 150 µg/mL (≈ 36.5 to 438 µM) |  |
| CCc1cc(C(=O)O)c(=O)[nH]c1-c1ccc(N2CCC(N(C)C)CC2)cc1 [Cpd 223, 6-{4-[4-(dimethylamino)piperidin-1-yl]phenyl}-5-ethyl-2-oxo-1,2-dihydropyridine-3-carboxylic acid] | 12.5 to 150 µg/mL (≈ 33.8 to 406 µM) | 12.5 to 150 µg/mL (≈ 33.8 to 406 µM) | 12.5 to 150 µg/mL (≈ 33.8 to 406 µM) | 12.5 to 150 µg/mL (≈ 33.8 to 406 µM) |  |
| CCc1cc(C(=O)O)c(=O)[nH]c1-c1ccc(N2CCC(OC)CC2)cc1 [Cpd 224, 5-ethyl-6-[4-(4-methoxypiperidin-1-yl)phenyl]-2-oxo-1,2-dihydropyridine-3-carboxylic acid] | < 1 µg/mL | 12.5 to 150 µg/mL (≈ 35.1 to 421 µM) | 12.5 to 150 µg/mL (≈ 35.1 to 421 µM) | 12.5 to 150 µg/mL (≈ 35.1 to 421 µM) |  |
| CCc1cc(C(=O)O)c(=O)[nH]c1-c1ccc(N2CCC(N)CC2)cc1 [Cpd 228, 6-[4-(4-aminopiperidin-1-yl)phenyl]-5-ethyl-2-oxo-1,2-dihydropyridine-3-carboxylic acid] | 12.5 to 150 µg/mL (≈ 36.6 to 439 µM) | 12.5 to 150 µg/mL (≈ 36.6 to 439 µM) | 12.5 to 150 µg/mL (≈ 36.6 to 439 µM) | 12.5 to 150 µg/mL (≈ 36.6 to 439 µM) |  |
| CCc1cc(C(=O)O)c(=O)[nH]c1-c1ccc(N2CCC(n3ccnn3)C2)cc1 (stereo not shown) [Cpd 230, 5-ethyl-2-oxo-6-{4-[3-(1H-1,2,3-triazol-1-yl)pyrrolidin-1-yl]phenyl}-1,2-dihydropyridine-3-carboxylic acid] | < 1 µg/mL | 1 to 3.5 µg/mL (≈ 2.64 to 9.22 µM) | 3.5 to 12.5 µg/mL (≈ 9.22 to 32.9 µM) | 12.5 to 150 µg/mL (≈ 32.9 to 395 µM) |  |
| CCc1cc(C(=O)O)c(=O)[nH]c1-c1ccc(N2CCC(C)(O)C2)cc1 (stereo not shown) [Cpd 233, 5-ethyl-6-[4-(3-hydroxy-3-methylpyrrolidin-1-yl)phenyl]-2-oxo-1,2-dihydropyridine-3-carboxylic acid] | < 1 µg/mL | 3.5 to 12.5 µg/mL (≈ 10.2 to 36.5 µM) | 12.5 to 150 µg/mL (≈ 36.5 to 438 µM) | 12.5 to 150 µg/mL (≈ 36.5 to 438 µM) |  |
| CCc1cc(C(=O)O)c(=O)[nH]c1-c1ccc(N2CCC(CNCc3ccccc3Cl)C2)cc1 (stereo not shown) [Cpd 234, 6-[4-(3-{[(2-chlorobenzyl)amino]methyl}pyrrolidin-1-yl)phenyl]-5-ethyl-2-oxo-1,2-dihydropyridine-3-carboxylic acid] | < 1 µg/mL | 1 to 3.5 µg/mL (≈ 2.15 to 7.51 µM) | 12.5 to 150 µg/mL (≈ 26.8 to 322 µM) | 12.5 to 150 µg/mL (≈ 26.8 to 322 µM) |  |
| CCc1cc(C(=O)O)c(=O)[nH]c1-c1ccc(N2CCC(C)(CN)C2)cc1 (stereo not shown) [Cpd 235, 6-{4-[3-(aminomethyl)-3-methylpyrrolidin-1-yl]phenyl}-5-ethyl-2-oxo-1,2-dihydropyridine-3-carboxylic acid] | 1 to 3.5 µg/mL (≈ 2.81 to 9.85 µM) | 12.5 to 150 µg/mL (≈ 35.2 to 422 µM) | 12.5 to 150 µg/mL (≈ 35.2 to 422 µM) | 12.5 to 150 µg/mL (≈ 35.2 to 422 µM) |  |
| CCc1cc(C(=O)O)c(=O)[nH]c1-c1ccc(N2CCC(CNCc3cccc(Cl)c3)C2)cc1 (stereo not shown) [Cpd 236, 6-[4-(3-{[(3-chlorobenzyl)amino]methyl}pyrrolidin-1-yl)phenyl]-5-ethyl-2-oxo-1,2-dihydropyridine-3-carboxylic acid] | < 1 µg/mL | 1 to 3.5 µg/mL (≈ 2.15 to 7.51 µM) | 3.5 to 12.5 µg/mL (≈ 7.51 to 26.8 µM) | 12.5 to 150 µg/mL (≈ 26.8 to 322 µM) |  |
| CCc1cc(C(=O)O)c(=O)[nH]c1-c1ccc(N2CCC(CNCc3ccc(Cl)cc3)C2)cc1 (stereo not shown) [Cpd 237, 6-[4-(3-{[(4-chlorobenzyl)amino]methyl}pyrrolidin-1-yl)phenyl]-5-ethyl-2-oxo-1,2-dihydropyridine-3-carboxylic acid] | < 1 µg/mL | < 1 µg/mL | 3.5 to 12.5 µg/mL (≈ 7.51 to 26.8 µM) | 12.5 to 150 µg/mL (≈ 26.8 to 322 µM) |  |
| CCc1cc(C(=O)O)c(=O)[nH]c1-c1ccc(N2CCC(CNCc3cccc(F)c3)C2)cc1 (stereo not shown) [Cpd 238, 5-ethyl-6-[4-(3-{[(3-fluorobenzyl)amino]methyl}pyrrolidin-1-yl)phenyl]-2-oxo-1,2-dihydropyridine-3-carboxylic acid] | < 1 µg/mL | 1 to 3.5 µg/mL (≈ 2.22 to 7.79 µM) | 12.5 to 150 µg/mL (≈ 27.8 to 334 µM) | 12.5 to 150 µg/mL (≈ 27.8 to 334 µM) |  |
| CCc1cc(C(=O)O)c(=O)[nH]c1-c1ccc(N2CCC(CNCc3ccc(F)cc3)C2)cc1 (stereo not shown) [Cpd 239, 5-ethyl-6-[4-(3-{[(4-fluorobenzyl)amino]methyl}pyrrolidin-1-yl)phenyl]-2-oxo-1,2-dihydropyridine-3-carboxylic acid] | < 1 µg/mL | < 1 µg/mL | 12.5 to 150 µg/mL (≈ 27.8 to 334 µM) | 12.5 to 150 µg/mL (≈ 27.8 to 334 µM) |  |
| CCc1cc(C(=O)O)c(=O)[nH]c1-c1ccc(N2CCC(CNCc3ccccc3F)C2)cc1 (stereo not shown) [Cpd 240, 5-ethyl-6-[4-(3-{[(2-fluorobenzyl)amino]methyl}pyrrolidin-1-yl)phenyl]-2-oxo-1,2-dihydropyridine-3-carboxylic acid] | < 1 µg/mL | 1 to 3.5 µg/mL (≈ 2.22 to 7.79 µM) | 12.5 to 150 µg/mL (≈ 27.8 to 334 µM) | 12.5 to 150 µg/mL (≈ 27.8 to 334 µM) |  |
| CCc1cc(C(=O)O)c(=O)[nH]c1-c1ccc(N2CCC(CNCc3cccnc3)C2)cc1 (stereo not shown) [Cpd 241, 5-ethyl-2-oxo-6-[4-(3-{[(pyridin-3-ylmethyl)amino]methyl}pyrrolidin-1-yl)phenyl]-1,2-dihydropyridine-3-carboxylic acid] | < 1 µg/mL | < 1 µg/mL | 12.5 to 150 µg/mL (≈ 28.9 to 347 µM) | 12.5 to 150 µg/mL (≈ 28.9 to 347 µM) |  |
| CCc1cc(C(=O)O)c(=O)[nH]c1-c1ccc(N2CCC(CNCc3ccncc3)C2)cc1 (stereo not shown) [Cpd 242, 5-ethyl-2-oxo-6-[4-(3-{[(pyridin-4-ylmethyl)amino]methyl}pyrrolidin-1-yl)phenyl]-1,2-dihydropyridine-3-carboxylic acid] | < 1 µg/mL | 1 to 3.5 µg/mL (≈ 2.31 to 8.09 µM) | 12.5 to 150 µg/mL (≈ 28.9 to 347 µM) | 12.5 to 150 µg/mL (≈ 28.9 to 347 µM) |  |
| CCc1cc(C(=O)O)c(=O)[nH]c1-c1ccc(N2CCC(CNCc3ccccn3)C2)cc1 (stereo not shown) [Cpd 243, 5-ethyl-2-oxo-6-[4-(3-{[(pyridin-2-ylmethyl)amino]methyl}pyrrolidin-1-yl)phenyl]-1,2-dihydropyridine-3-carboxylic acid] | < 1 µg/mL | 1 to 3.5 µg/mL (≈ 2.31 to 8.09 µM) | 12.5 to 150 µg/mL (≈ 28.9 to 347 µM) | 12.5 to 150 µg/mL (≈ 28.9 to 347 µM) |  |
| CCc1cc(C(=O)O)c(=O)[nH]c1-c1ccc(N2C[C@H]3CC[C@H](N=[N+]=[N-])[C@H]3C2)cc1.O=C(O)C(F)(F)F [Cpd 245, 6-{4-[(3aR,4S,6aS)-4-azidohexahydrocyclopenta[c]pyrrol-2(1H)-yl]phenyl}-5-ethyl-2-oxo-1,2-dihydropyridine-3-carboxylic acid trifluoroacetate] |  | 3.5 to 12.5 µg/mL | 3.5 to 12.5 µg/mL | 12.5 to 150 µg/mL | < 1 µg/mL |
| CCc1c(-c2ccc(N3C[C@H]4C[C@@H](N)C[C@H]4C3)cc2)[nH]c(=O)c(C(=O)O)c1O [Cpd 248, 6-{4-[(3aR,5r,6aS)-5-aminohexahydrocyclopenta[c]pyrrol-2(1H)-yl]phenyl}-5-ethyl-4-hydroxy-2-oxo-1,2-dihydropyridine-3-carboxylic acid] | 1 to 3.5 µg/mL (≈ 2.61 to 9.13 µM) | 12.5 to 150 µg/mL (≈ 32.6 to 391 µM) | 12.5 to 150 µg/mL (≈ 32.6 to 391 µM) | 12.5 to 150 µg/mL (≈ 32.6 to 391 µM) |  |
| CCc1c(-c2ccc(N3C[C@H](CN(Cc4ccccc4)Cc4ccccc4)[C@@H](C)C3)cc2)[nH]c(=O)c(C(=O)O)c1O [Cpd 249, 6-(4-{(3S,4R)-3-[(dibenzylamino)methyl]-4-methylpyrrolidin-1-yl}phenyl)-5-ethyl-4-hydroxy-2-oxo-1,2-dihydropyridine-3-carboxylic acid] | 12.5 to 150 µg/mL (≈ 22.7 to 272 µM) | 12.5 to 150 µg/mL (≈ 22.7 to 272 µM) | 12.5 to 150 µg/mL (≈ 22.7 to 272 µM) | 12.5 to 150 µg/mL (≈ 22.7 to 272 µM) |  |
| CCc1c(-c2ccc(N3C[C@H]4C[C@@H](NCc5ccccc5)C[C@H]4C3)cc2)[nH]c(=O)c(C(=O)O)c1O [Cpd 250, 6-{4-[(3aR,5r,6aS)-5-(benzylamino)hexahydrocyclopenta[c]pyrrol-2(1H)-yl]phenyl}-5-ethyl-4-hydroxy-2-oxo-1,2-dihydropyridine-3-carboxylic acid] | 3.5 to 12.5 µg/mL (≈ 7.39 to 26.4 µM) | 12.5 to 150 µg/mL (≈ 26.4 to 317 µM) | 12.5 to 150 µg/mL (≈ 26.4 to 317 µM) | 12.5 to 150 µg/mL (≈ 26.4 to 317 µM) |  |
| CCc1c(-c2ccc(N3C[C@H]4C[C@@H](N(Cc5ccccc5)Cc5ccccc5)C[C@H]4C3)cc2)[nH]c(=O)c(C(=O)O)c1O [Cpd 251, 6-{4-[(3aR,5r,6aS)-5-(dibenzylamino)hexahydrocyclopenta[c]pyrrol-2(1H)-yl]phenyl}-5-ethyl-4-hydroxy-2-oxo-1,2-dihydropyridine-3-carboxylic acid] | 12.5 to 150 µg/mL (≈ 22.2 to 266 µM) | 12.5 to 150 µg/mL (≈ 22.2 to 266 µM) | 12.5 to 150 µg/mL (≈ 22.2 to 266 µM) | 12.5 to 150 µg/mL (≈ 22.2 to 266 µM) |  |
| CCc1c(-c2ccc(N3CC4CCCN(C(=O)OC(C)(C)C)C4C3)cc2)[nH]c(=O)c(C(=O)O)c1O (stereo not shown) [Cpd 253, 6-{4-[1-(tert-butoxycarbonyl)octahydro-6H-pyrrolo[3,4-b]pyridin-6-yl]phenyl}-5-ethyl-4-hydroxy-2-oxo-1,2-dihydropyridine-3-carboxylic acid] | < 1 µg/mL | 12.5 to 150 µg/mL (≈ 25.8 to 310 µM) | 3.5 to 12.5 µg/mL (≈ 7.24 to 25.8 µM) | 12.5 to 150 µg/mL (≈ 25.8 to 310 µM) |  |
